According to patent US20250352550A1, “SUBSTITUTED FUROPYRIDINES FOR THERAPEUTIC USE” (MASARYKOVA UNIVERZITA, priority 2022, published 2025):

Assays:
Format in all cases: biochemical
[1] = molecular target: T1, KHS/MAP4K5 (Homo sapiens, UniProt Q9Y4K4); assay: HotSpot radiometric kinase assay (Reaction Biology), KHS/MAP4K5; conditions: 1.5 nM kinase, substrate MBP 20 μM, 33P-ATP, 120 minutes at room temperature
T1 construct: purchased Reaction Biology
Description: (§1) The compounds were profiled in the HotSpot radiometric assays (Reaction Biology).
(§2) Briefly, • 1. Substrate indicated in Table 1 was dissolved in freshly prepared reaction buffer (20 mM HEPES (pH 7.5), 10 mM MgCl2, 1 mM EGTA, 0.01% Brij35, 0.02 mg/ml BSA, 0.1 mM Na3VO4, 2 mM DTT, 1% DMSO) at the concentration indicated in Table 1. • 2. Corresponding kinase (concentration indicated in Table 1) was added and the mixture was gently mixed. • 3. Tested compound dissolved in DMSO was added into the kinase reaction mixture. • 4. ^33P-ATP (specific activity 0.01 μCi/μL final) was added into the reaction mixture to initiate the reaction. • 5. The kinase reaction was incubated for 120 minutes at room temperature. • 6. Reaction mixture was spotted onto P81 ion exchange paper (Whatman K 3698-915). • 7. The filters were extensively washed with 0.754 phosphoric acid. • 7. The radioactive phosphorylated substrate remaining on the filter paper was measured.
(§3) Kinase activity data were expressed as the percent remaining kinase activity in tested samples compared to the vehicle (DMSO) reactions. IC50 values and curve fits were obtained using Prism4 Software (GraphPad).
(§4) Table 2 summarizes the inhibitory activities of indicated compounds tested in the in vitro kinase assays described above.

[2] = molecular target: T2, DDR1 (Homo sapiens, UniProt Q08345); assay: HotSpot radiometric kinase assay (Reaction Biology), DDR1; conditions: 200 nM kinase, substrate IRS1tide 20 μM, 33P-ATP, 120 minutes at room temperature
T2 construct: purchased Reaction Biology
Description: as §1
as §2, with “Reaction mixture was spotted onto P81 ion exchange paper (Whatman K 3698-915). • 7. The filters were extensively washed with 0.754 phosphoric acid. • 7.” left out
as §3

[3] = molecular target: T3, FLT3 (Homo sapiens, UniProt P36888); assay: HotSpot radiometric kinase assay (Reaction Biology), FLT3; conditions: 4 nM kinase, substrate ABLtide 20 μM, 33P-ATP, 120 minutes at room temperature
T3 construct: purchased Reaction Biology
T3 sequence (P36888 27-993): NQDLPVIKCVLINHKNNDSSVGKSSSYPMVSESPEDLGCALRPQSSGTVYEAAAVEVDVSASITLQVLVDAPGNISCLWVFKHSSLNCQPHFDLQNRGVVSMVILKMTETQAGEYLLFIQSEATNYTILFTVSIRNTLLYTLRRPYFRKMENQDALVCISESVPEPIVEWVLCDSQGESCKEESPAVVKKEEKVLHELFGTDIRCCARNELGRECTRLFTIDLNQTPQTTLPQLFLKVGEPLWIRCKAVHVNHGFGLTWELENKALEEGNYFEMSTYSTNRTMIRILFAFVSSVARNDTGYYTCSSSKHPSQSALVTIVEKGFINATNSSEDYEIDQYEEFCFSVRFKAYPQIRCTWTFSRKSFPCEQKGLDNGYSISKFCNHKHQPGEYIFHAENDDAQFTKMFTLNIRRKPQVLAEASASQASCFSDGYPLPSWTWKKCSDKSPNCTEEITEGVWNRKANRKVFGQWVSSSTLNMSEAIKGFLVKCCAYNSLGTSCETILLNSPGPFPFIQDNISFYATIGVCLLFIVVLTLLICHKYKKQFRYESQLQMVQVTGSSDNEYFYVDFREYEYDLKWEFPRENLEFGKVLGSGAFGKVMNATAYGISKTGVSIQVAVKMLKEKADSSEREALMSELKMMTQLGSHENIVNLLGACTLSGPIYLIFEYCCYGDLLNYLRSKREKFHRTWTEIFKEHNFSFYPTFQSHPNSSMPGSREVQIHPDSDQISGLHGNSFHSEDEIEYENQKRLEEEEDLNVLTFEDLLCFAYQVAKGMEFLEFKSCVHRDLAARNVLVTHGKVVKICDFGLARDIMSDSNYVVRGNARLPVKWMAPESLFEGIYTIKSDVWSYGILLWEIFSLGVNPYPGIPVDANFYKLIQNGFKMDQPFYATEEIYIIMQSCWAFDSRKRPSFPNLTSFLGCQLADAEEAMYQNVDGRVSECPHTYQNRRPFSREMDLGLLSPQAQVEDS
Description: as §1, §2, §3, §4

T2 sequence (Q08345 19-913): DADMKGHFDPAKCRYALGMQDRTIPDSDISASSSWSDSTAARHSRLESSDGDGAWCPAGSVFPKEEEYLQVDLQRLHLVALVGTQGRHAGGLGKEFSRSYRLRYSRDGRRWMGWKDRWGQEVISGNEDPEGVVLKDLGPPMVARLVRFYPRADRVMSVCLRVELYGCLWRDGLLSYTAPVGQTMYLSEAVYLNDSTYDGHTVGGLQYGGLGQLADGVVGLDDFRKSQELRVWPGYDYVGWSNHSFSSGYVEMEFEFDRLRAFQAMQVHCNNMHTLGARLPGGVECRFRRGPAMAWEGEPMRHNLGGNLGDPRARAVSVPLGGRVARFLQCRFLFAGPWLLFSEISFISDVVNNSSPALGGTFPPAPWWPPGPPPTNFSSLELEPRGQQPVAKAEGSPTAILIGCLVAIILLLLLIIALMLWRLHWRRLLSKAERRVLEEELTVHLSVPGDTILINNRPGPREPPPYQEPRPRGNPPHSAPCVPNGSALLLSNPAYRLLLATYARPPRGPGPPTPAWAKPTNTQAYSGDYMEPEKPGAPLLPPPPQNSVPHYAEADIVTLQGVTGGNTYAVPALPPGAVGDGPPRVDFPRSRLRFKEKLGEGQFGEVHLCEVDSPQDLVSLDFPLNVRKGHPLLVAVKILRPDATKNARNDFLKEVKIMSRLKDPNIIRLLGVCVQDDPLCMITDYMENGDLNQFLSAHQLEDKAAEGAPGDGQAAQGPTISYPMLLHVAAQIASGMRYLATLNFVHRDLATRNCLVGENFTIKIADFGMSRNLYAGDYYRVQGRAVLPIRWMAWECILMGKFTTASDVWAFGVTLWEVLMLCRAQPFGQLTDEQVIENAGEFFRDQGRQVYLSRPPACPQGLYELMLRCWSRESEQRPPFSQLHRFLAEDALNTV
T1 sequence (Q9Y4K4 whole entry): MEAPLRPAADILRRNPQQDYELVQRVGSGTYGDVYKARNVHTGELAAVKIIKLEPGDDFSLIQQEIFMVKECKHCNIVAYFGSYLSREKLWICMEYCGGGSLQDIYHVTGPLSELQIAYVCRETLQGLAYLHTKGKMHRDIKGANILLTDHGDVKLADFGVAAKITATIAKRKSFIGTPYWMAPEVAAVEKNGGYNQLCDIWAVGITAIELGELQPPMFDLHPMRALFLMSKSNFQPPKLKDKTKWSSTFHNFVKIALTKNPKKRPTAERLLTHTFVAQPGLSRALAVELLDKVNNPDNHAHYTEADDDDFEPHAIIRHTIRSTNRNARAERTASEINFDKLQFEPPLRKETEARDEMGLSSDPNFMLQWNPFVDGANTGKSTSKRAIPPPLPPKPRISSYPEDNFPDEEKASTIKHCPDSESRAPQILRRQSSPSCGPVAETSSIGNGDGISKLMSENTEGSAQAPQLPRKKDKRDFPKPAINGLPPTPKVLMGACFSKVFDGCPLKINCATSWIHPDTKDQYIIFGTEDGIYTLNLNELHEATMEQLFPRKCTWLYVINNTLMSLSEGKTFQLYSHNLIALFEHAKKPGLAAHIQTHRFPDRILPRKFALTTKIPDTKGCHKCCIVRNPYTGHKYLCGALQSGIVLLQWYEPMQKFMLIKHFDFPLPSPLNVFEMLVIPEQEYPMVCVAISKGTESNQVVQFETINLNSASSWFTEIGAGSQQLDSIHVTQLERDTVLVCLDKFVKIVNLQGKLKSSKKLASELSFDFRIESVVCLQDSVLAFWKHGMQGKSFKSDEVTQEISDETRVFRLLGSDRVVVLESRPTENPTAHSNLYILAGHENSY

Row | Compound | IC50 [1] [nM] | IC50 [2] [nM] | IC50 [3] [nM]
1 | CC(c1ccccc1)c1coc2cc(-c3ccc(N4CCN(C)CC4)cc3)cnc12 (racemic) [Preparative Example 203, 1-methyl-4-{4-[3-(1-phenylethyl)furo[3,2-b]pyridin-6-yl]phenyl}piperazine] | 804 | 808 | –
2 | Cn1cc(-c2coc3cc(-c4ccc(N5CCNCC5)cc4)cnc23)cn1 [Preparative Example 34, 3-(1-methyl-1H-pyrazol-4-yl)-6-(4-(piperazin-1-yl)phenyl)furo[3,2-b]pyridine] | 433 | 64 | 100
3 | CCCCOC(=O)c1cccc(-c2coc3cc(-c4ccc(N5CCNCC5)cc4)cnc23)c1 [Preparative Example 167, butyl 3-(6-(4-(piperazin-1-yl)phenyl)furo[3,2-b]pyridin-3-yl)benzoate] | – | 305 | 37
4 | CN1CCN(c2ccc(-c3cnc4c(-c5ccccc5)coc4c3)cc2)CC1 [Preparative Example 172, 6-(4-(4-methylpiperazin-1-yl)phenyl)-3-phenylfuro[3,2-b]pyridine] | – | 141 | 33
5 | CN1CCN(c2ccc(-c3cnc4c(-c5cccc([S+](C)[O-])c5)coc4c3)cc2)CC1 (stereo not shown) [Preparative Example 181, 6-(4-(4-methylpiperazin-1-yl)phenyl)-3-(3-(methylsulfinyl)phenyl)furo[3,2-b]pyridine] | – | 284 | 99
6 | Cc1c(-c2ccc(N3CCN(C)CC3)cc2)cnc2c(-c3ccccc3)coc12 [Preparative Example 188, 7-methyl-6-(4-(4-methylpiperazin-1-yl)phenyl)-3-phenylfuro[3,2-b]pyridine] | – | 186 | 147
7 | Cc1oc2cc(-c3ccc(N4CCN(C)CC4)cc3)cnc2c1-c1ccccc1 [Preparative Example 196, 1-methyl-4-(4-{2-methyl-3-phenylfuro[3,2-b]pyridin-6-yl}phenyl)piperazine] | – | 148 | 96
8 | CCCc1oc2cc(-c3ccc(N4CCN(C)CC4)cc3)cnc2c1-c1ccccc1 [Preparative Example 200, 1-methyl-4-(4-{3-phenyl-2-propylfuro[3,2-b]pyridin-6-yl}phenyl)piperazine] | – | 79 | 362
9 | Cc1nn(C)cc1-c1coc2cc(-c3ccc(N4CCN(C)CC4)cc3)cnc12 [Preparative Example 216, 1-{4-[3-(1,3-dimethyl-1H-pyrazol-4-yl)furo[3,2-b]pyridin-6-yl]phenyl}-4-methylpiperazine] | – | 367 | 224
10 | CN1CCN(c2ccc(-c3cnc4c(-c5ccccc5)c(-c5ccncc5)oc4c3)cc2)CC1 [Preparative Example 223, 1-methyl-4-{4-[3-phenyl-2-(pyridin-4-yl)furo[3,2-b]pyridin-6-yl]phenyl}piperazine] | – | 70 | 269
11 | CN1CCN(c2ccc(-c3cnc4c(-n5ccnc5)coc4c3)cc2)CC1 [Preparative Example 231, 1-{4-[3-(1H-imidazol-1-yl)furo[3,2-b]pyridin-6-yl]phenyl}-4-methylpiperazine] | – | 213 | 101
12 | CONC(=O)c1cccc(-c2coc3cc(-c4ccc(N5CCN(C)CC5)cc4)cnc23)c1 [Preparative Example 238, N-methoxy-3-{6-[4-(4-methylpiperazin-1-yl)phenyl]furo[3,2-b]pyridin-3-yl}benzamide] | – | 77 | 22
13 | CN1CCN(c2ccc(-c3cnc4c(-c5ccc(NC(=O)N(C)C)cc5)coc4c3)cc2)CC1 [Preparative Example 253, 3,3-dimethyl-1-(4-{6-[4-(4-methylpiperazin-1-yl)phenyl]furo[3,2-b]pyridin-3-yl}phenyl)urea] | 181 | – | 377
14 | COc1ccc(-c2coc3cc(-c4ccc(N5CCN(C)CC5)cc4)cnc23)cc1 [Preparative Example 255, 3-(4-methoxyphenyl)-6-(4-(4-methylpiperazin-1-yl)phenyl)furo[3,2-b]pyridine] | – | 191 | 141
15 | CN1CCN(c2ccc(-c3cnc4c(-c5ccc(C#N)cc5)coc4c3)cc2)CC1 [Preparative Example 257, 4-(6-(4-(4-methylpiperazin-1-yl)phenyl)furo[3,2-b]pyridin-3-yl)benzonitrile] | – | 200 | 28

Next, values leading:

Row | IC50 [1] [nM] | IC50 [2] [nM] | IC50 [3] [nM] | Compound
16 | 906 | 116 | 49 | COc1cccc(-c2coc3cc(-c4ccc(N5CCNCC5)cc4)cnc23)c1 [Preparative Example 14, 3-(3-methoxyphenyl)-6-(4-(piperazin-1-yl)phenyl)furo[3,2-b]pyridine]
17 | 675 | 42 | 20 | Fc1ccc(-c2coc3cc(-c4ccc(N5CCNCC5)cc4)cnc23)cc1 [Preparative Example 51, 3-(4-fluorophenyl)-6-(4-(piperazin-1-yl)phenyl)furo[3,2-b]pyridine]
18 | 538 | 301 | 207 | CN(C)C(=O)c1cccc(-c2coc3cc(-c4ccc(N5CCNCC5)cc4)cnc23)c1 [Preparative Example 54, N,N-dimethyl-3-(6-(4-(piperazin-1-yl)phenyl)furo[3,2-b]pyridin-3-yl)benzamide]
19 | – | 734 | 46 | CC(=O)c1cc(-c2coc3cc(-c4ccc(N5CCN(C)CC5)cc4)cnc23)ccn1 [Preparative Example 156, 1-(4-(6-(4-(4-methylpiperazin-1-yl)phenyl)furo[3,2-b]pyridin-3-yl)pyridin-2-yl)ethan-1-one]
20 | – | 209 | 832 | c1ccc(-c2ccccc2-c2coc3cc(-c4ccc(N5CCNCC5)cc4)cnc23)cc1 [Preparative Example 161, 3-([1,1′-biphenyl]-2-yl)-6-(4-(piperazin-1-yl)phenyl)furo[3,2-b]pyridine]
21 | – | 365 | 21 | c1cc(-c2coc3cc(-c4ccc(OCCN5CCCCC5)cc4)cnc23)ccn1 [Preparative Example 171, 6-(4-(2-(piperidin-1-yl)ethoxy)phenyl)-3-(pyridin-4-yl)furo[3,2-b]pyridine]
22 | – | 290 | 225 | CN1CCN(c2ccc(-c3cnc4c(-c5cccc(S(C)(=O)=O)c5)coc4c3)cc2)CC1 [Preparative Example 175, 6-(4-(4-methylpiperazin-1-yl)phenyl)-3-(3-(methylsulfonyl)phenyl)furo[3,2-b]pyridine]
23 | – | 620 | 373 | CN1CCN(c2ccc(-c3cnc4c(Cc5ccccc5)coc4c3)cc2)CC1 [Preparative Example 186, 3-benzyl-6-(4-(4-methylpiperazin-1-yl)phenyl)furo[3,2-b]pyridine]
24 | – | 486 | 66 | COC(=O)c1cccc(-c2coc3cc(-c4ccc(N5CCN(C)CC5)cc4)cnc23)c1 [Preparative Example 237, methyl 3-{6-[4-(4-methylpiperazin-1-yl)phenyl]furo[3,2-b]pyridin-3-yl}benzoate]
